Key:
[1] = biological target: T1, potassium ion channel hERG (Homo sapiens, UniProt Q12809); test: Assay 5 hERG assay (patch clamp, CHO cells over-expressing hERG); type: cell-based; details: SyncroPatch 384PE, room temperature, geometric mean, read-out: Assay 5 (hERG Hu CHO if EPh CR-Syncro) GMean IC50
T1 construct: expressed in transfected cells; host or cells: Chinese hamster ovary K1 (CHO)
Description: This assay (human Ether-d-go-go-Related Gene) measures activity of the compounds at the potassium ion channel hERG (human Ether-d-go-go-Related Gene).
Experiments were performed on the SyncroPatch 384PE high throughput patch clamp platform at room temperature and medium resistance chips with 4 patch holes per site. Chinese hamster ovary K1 (CHO) cell lines over-expressing the ion channel of choice (hERG) were used in assay-ready format and kept in liquid nitrogen or were used from live culture. Cells were either thawed and diluted in HBSS or were detached from flasks and resuspended in HBSS. HBSS comprised 140 mM NaCl, 4 mM KCl, 10 mM HEPES and 5 mM Glucose (pH7.4). The internal patch clamp solution was KF 120 mM, KCl 20 mM, HEPES 10 mM, EGTA 10 mM, and 25 PM Escin (pH 7.2). After the sealing process was complete, the external solution was exchanged for external patch clamp solution comprising NaCl 80 mM, KCl 4 mM, HEPES 10 mM, CaCl2 2 mM, MgCl2 1 mM, glucose 5 mM, and NMDG 60 mM (pH 7.4). All solutions were stored at room temperature, except Escin, which was stored at 4° C. All test compounds were dispensed in greiner-bio 384 well plates and tested in a 6 point cumulative assay (final DMSO concentration 0.33%). Only wells that passed previously agreed acceptance criteria for this platform were used in this analysis (30 MegaOhm seal resistance, Z prime >0.4 and current size >0.2 nA). […]

[2] = biological target: GSK3β (Glycogen synthase kinase-3 beta) (Homo sapiens, UniProt P49841); test: Assay 6 GSK3β assay (ThermoFisher Z-Lyte FRET); type: biochemical; details: ATP Conc: 10 μM, geometric mean; read-out: Assay 6 (GSK3β FRET-Z-Lyte Cr) GMean IC50
GSK3β (Glycogen synthase kinase-3 beta), sequence (P49841 whole entry): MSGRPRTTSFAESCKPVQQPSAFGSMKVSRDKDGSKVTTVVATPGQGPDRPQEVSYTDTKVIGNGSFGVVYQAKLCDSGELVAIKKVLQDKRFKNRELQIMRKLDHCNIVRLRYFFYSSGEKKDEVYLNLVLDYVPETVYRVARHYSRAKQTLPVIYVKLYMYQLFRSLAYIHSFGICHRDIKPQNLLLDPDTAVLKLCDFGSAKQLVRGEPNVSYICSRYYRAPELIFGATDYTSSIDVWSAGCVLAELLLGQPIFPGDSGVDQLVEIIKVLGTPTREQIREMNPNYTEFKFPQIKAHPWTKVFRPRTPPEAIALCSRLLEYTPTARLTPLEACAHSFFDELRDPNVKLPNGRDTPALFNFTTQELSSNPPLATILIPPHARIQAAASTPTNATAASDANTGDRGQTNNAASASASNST
Description: This assay measures the activity of the compounds at GSK33 (Glycogen synthase kinase-3 beta).
The test compounds were screened in 1% DMSO (final) in the well. For 10 point titrations, 3-fold serial dilutions are conducted from the starting concentration of 10 PM.
Bar-coded Corning, low volume NBS, black 384-well plate • 1. 2.5 μL—4× Test Compound or 100 nL 100× plus 2.4 μL kinase buffer • 2. 5 μL—2× Peptide/Kinase Mixture • 3. 2.5 μL—4×ATP Solution • 4. 30-second plate shake • 5. 60-minute Kinase Reaction incubation at room temperature • 6. 5 μL—Development Reagent Solution • 7. 30-second plate shake • 8. 60-minute Development Reaction incubation at room temperature • 9. Read on fluorescence plate reader and analyse the data
In step 2, the 2×GSK3β (GSK3 beta)/Ser/Thr (Glycogen synthase kinase-3 beta/Serine/Threonine) 09 mixture is prepared in 50 mM HEPES (4-(2-hydroxyethyl)-1-piperazineethanesulfonic acid) pH 7.5, 0.01% BRIJ-35, 10 mM MgCl2, 1 mM EGTA (egtazic acid). The final 10 μL Kinase Reaction consists of 0.22-0.92 ng GSK3β (GSK3 beta) and 2 PM Ser/Thr 09 in 50 mM HEPES pH 7.5, 0.01% BRIJ-35, 10 mM MgCl2, 1 mM EGTA.
In step 3 the ATP Solution is diluted to a 4× working concentration in Kinase Buffer (50 mM HEPES pH 7.5, 0.01% BRIJ-35, 10 mM MgCl2, 1 mM EGTA).
In Step 6 the Development Reagent is diluted 1:512 in Development Buffer (10× Novel PKC Lipid Mix: 2 mg/mL Phosphatidyl Serine, 0.2 mg/mL DAG in 20 mM HEPES, pH 7.4, 0.3% CHAPS).
SelectScreen® Kinase Profiling Service uses XLfit from IDBS. The dose response curve is curve fit to model number 205 (sigmoidal dose-response model).

[3] = biological target: PCSK9 (Homo sapiens, UniProt Q8NBP7, G670E/V474I); test: biochemical
PCSK9, sequence (Q8NBP7 with tags, fused parts or gaps V474I/G670E): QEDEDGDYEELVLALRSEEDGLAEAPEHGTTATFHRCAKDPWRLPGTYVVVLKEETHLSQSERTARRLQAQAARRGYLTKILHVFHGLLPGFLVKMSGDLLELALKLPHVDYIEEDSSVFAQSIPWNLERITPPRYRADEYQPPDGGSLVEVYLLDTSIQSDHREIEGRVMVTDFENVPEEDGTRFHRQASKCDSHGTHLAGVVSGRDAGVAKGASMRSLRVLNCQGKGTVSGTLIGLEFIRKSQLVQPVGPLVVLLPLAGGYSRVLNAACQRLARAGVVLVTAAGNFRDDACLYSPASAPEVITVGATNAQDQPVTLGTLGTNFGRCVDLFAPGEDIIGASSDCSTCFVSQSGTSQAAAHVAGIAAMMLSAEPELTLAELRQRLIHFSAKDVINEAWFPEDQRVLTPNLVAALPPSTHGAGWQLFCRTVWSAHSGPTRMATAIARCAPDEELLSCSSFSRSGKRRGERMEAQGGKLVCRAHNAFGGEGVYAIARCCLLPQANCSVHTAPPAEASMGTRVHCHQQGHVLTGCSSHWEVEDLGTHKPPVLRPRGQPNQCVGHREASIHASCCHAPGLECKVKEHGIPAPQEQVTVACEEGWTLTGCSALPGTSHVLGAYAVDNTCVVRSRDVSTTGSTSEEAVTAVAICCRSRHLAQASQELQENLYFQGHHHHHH

T1 sequence (Q12809 whole entry): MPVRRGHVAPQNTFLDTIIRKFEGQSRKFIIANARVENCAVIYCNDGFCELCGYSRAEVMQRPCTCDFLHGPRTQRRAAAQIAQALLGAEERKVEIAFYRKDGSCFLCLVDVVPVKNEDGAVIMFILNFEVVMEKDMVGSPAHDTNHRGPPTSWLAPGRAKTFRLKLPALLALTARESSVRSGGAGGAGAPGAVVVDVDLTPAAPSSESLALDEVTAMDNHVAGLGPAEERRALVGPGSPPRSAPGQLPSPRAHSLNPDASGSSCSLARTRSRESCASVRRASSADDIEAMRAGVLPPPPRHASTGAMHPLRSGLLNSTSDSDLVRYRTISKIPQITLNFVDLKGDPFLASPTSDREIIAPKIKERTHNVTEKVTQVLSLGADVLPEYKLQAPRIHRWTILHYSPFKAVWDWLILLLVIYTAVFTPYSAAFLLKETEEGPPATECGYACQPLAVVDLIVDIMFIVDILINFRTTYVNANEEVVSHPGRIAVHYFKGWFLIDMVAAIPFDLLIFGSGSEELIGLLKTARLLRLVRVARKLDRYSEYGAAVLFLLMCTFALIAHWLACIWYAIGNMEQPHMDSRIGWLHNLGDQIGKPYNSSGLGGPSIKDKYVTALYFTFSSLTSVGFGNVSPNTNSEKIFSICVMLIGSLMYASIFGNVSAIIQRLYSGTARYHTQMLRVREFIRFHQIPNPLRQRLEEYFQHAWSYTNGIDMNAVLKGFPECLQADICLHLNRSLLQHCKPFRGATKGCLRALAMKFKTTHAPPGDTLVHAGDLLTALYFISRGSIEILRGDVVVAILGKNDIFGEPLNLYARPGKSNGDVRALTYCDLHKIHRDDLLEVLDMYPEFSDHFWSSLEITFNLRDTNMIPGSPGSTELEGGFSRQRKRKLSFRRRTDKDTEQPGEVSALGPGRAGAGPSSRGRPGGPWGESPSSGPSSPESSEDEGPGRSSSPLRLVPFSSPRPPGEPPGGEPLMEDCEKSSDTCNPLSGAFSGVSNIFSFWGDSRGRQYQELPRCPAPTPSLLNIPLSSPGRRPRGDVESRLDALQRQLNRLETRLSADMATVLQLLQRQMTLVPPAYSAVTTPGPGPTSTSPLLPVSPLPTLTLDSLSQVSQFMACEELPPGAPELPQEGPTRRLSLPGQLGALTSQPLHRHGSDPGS

SMILES | IC50 [1] | IC50 [2] | IC50 [3]
Cc1cnc(NCC(CCO)CNc2ccc(-n3cccc(C)c3=O)cn2)nn1 (racemic) [Example 315, rac-6′-((4-Hydroxy-2-(((6-methyl-1,2,4-triazin-3-yl)amino)methyl)butyl)amino)-3-methyl-2H-[1,3′-bipyridin]-2-one] | > 40.1 µM | > 10 µM | 1.29 µM
Cc1ccc(=O)n(-c2ccc(NCC(CCO)CNc3ncc(C)nn3)nc2)c1 (racemic) [Example 316, rac-6′-((4-Hydroxy-2-(((6-methyl-1,2,4-triazin-3-yl)amino)methyl)butyl)amino)-5-methyl-2H-[1,3′-bipyridin]-2-one] | > 40 µM | – | 7.43 µM
Cc1cnc(NCC(CCO)CNc2ccc(-n3c(=O)ccc4ccccc43)cn2)nn1 (racemic) [Example 318, rac-1-(6-((4-Hydroxy-2-(((6-methyl-1,2,4-triazin-3-yl)amino)methyl)butyl)amino)pyridin-3-yl)quinolin-2(1H)-one] | > 40 µM | – | 0.284 µM
Cc1cnc(NCC(CCO)CNc2ccc(-n3c(=O)n(C)c4cccnc43)cn2)nn1 (racemic) [Example 319, rac-3-(6-((4-Hydroxy-2-(((6-methyl-1,2,4-triazin-3-yl)amino)methyl)butyl)amino)pyridin-3-yl)-1-methyl-1,3-dihydro-2H-imidazo[4,5-b]pyridin-2-one] | > 40 µM | – | 0.705 µM
Cc1cnc(NCC(CCO)CNc2ccc(-n3c(=O)ccc4cccnc43)cn2)nn1 (racemic) [Example 320, rac-1-(6-((4-Hydroxy-2-(((6-methyl-1,2,4-triazin-3-yl)amino)methyl)butyl)amino)pyridin-3-yl)-1,8-naphthyridin-2(1H)-one] | > 40 µM | – | 0.559 µM
Cc1cnc(NCC(CCO)CNc2ccc(-n3c(=O)n(C)c4ccccc43)cn2)nn1 (racemic) [Example 321, rac-1-(6-((4-Hydroxy-2-(((6-methyl-1,2,4-triazin-3-yl)amino)methyl)butyl)amino)pyridin-3-yl)-3-methyl-1,3-dihydro-2H-benzo[d]imidazol-2-one] | > 40 µM | – | 0.297 µM
CCOC(=O)c1cnc(N[C@H]2CC[C@H](Nc3ccc(-n4ccccc4=O)cn3)C2)nn1 [Compound 10, Ethyl 3-(((1S,3S)-3-((2-oxo-2H-[1,3′-bipyridin]-6′-yl)amino)cyclopentyl)amino)-1,2,4-triazine-6-carboxylate] | > 40 µM | > 10 µM | 0.797 µM
Fc1cccc(F)c1-c1ccc(N[C@H]2CC[C@H](Nc3ncc(C4CC4)nn3)C2)nc1 [Example 53] | 3.4 µM | > 10 µM | –
COc1cccc(F)c1-c1ccc(N[C@H]2CC[C@H](Nc3ncc(C4CC4)nn3)C2)nc1 [Example 54] | 4.3 µM | > 10 µM | –
O=c1cccnn1-c1cnc(N[C@H]2CC[C@H](Nc3ncc(C4CC4)nn3)C2)cn1 [Example 59, 2-(5-(((1S,3S)-3-((6-Cyclopropyl-1,2,4-triazin-3-yl)amino)cyclopentyl)amino)pyrazin-2-yl)pyridazin-3(2H)-one] | > 40 µM | > 10 µM | 0.045 µM
COc1c(C(=O)O)ccc(F)c1-c1ccc(N[C@H]2CC[C@H](Nc3ncc(C4CC4)nn3)C2)nc1 [Example 167, 3-(6-(((1S,3S)-3-((6-Cyclopropyl-1,2,4-triazin-3-yl)amino)cyclopentyl)amino)pyridin-3-yl)-4-fluoro-2-methoxybenzoic acid] | > 40.1 µM | > 10 µM | –
COc1c(C#N)ccc(F)c1-c1ccc(N[C@H]2CC[C@H](Nc3ncc(C4CC4)nn3)C2)nc1 [Example 168, 3-(6-(((1S,3S)-3-((6-Cyclopropyl-1,2,4-triazin-3-yl)amino)cyclopentyl)amino)pyridin-3-yl)-4-fluoro-2-methoxybenzonitrile] | 3.1 µM | > 10 µM | –

From patent US20240228469A1, “PCSK9 INHIBITORS AND METHODS OF USE THEREOF” (AstraZeneca AB, priority 2022, published 2024)
